# Residues, ends and D or L forms follow the SMILES beside them. *: point of attachment. Cbz = O=C(OCc1ccccc1)*; CH2F = FC*
# Key:
# Assay type in all cases: cell-based, human
# MRC-5 cells = conditions: for cell death of MRC-5 cells: within the first 24 h of exposure, anti-Fas and TNF-α only in the presence of CHX, phase microscope
# Method: (§1) Tumor necrosis factor receptor 1 (TNF-R1)-mediated apoptosis was induced by exposure of HeLa and MRC-5 cells to tumor necrosis factor-α (TNF-α) (Sigma, 10-60 ng/mL)+CHX (10-30 μg/mL). Fas-mediated apoptosis was induced by exposure of cells to an anti-Fas antibody (Coulter, 7C11 antibody at 0.2-4 μg/mL)+CHX (10-30 μg/mL). The degree of cell death was determined by the visual scoring of surviving cells, in representative fields, under a phase microscope.
# The time-course of apoptosis was also analyzed by examining the expression of phosphatidylserine on the cell surface, as detected with FITC-labeled Annexin V, and by a dye-exclusion test using propidium iodide. These two tests were performed with an ApoAlert Annexin V Apoptosis kit (Clontech) in accordance with the manufacturer's recommendations, on a flow cytometer (FACScan, Becton-Dickinson).
# These experiments were performed on MRC-5, a normal human fibroblast cell line which can be productively infected by HCMV in cell culture. The present inventors first examined whether infection of cells with HCMV alters the cell's sensitivity to Fas- or TNF-R1-mediated apoptosis.
# [1] = tested on: HCMV-infected MRC-5 cells; experiment: Apoptosis resistance of HCMV-infected MRC-5 cells in presence of viral DNA polymerase inhibitors; conditions: concentration sufficient to inhibit viral replication; challenge two days later with anti-Fas antibody+CHX or TNF-α+CHX
# Text: To discriminate between these two mechanisms, MRC-5 cells were infected with HCMV in the presence (or absence) of inhibitors of viral DNA polymerase, such as phosphonacetic acid or gancyclovir (Huang, 1975; Crumpacker, 1996) which prevent the expression of the late genes of HCMV in the host cell (Mocarski, 1996).
# MRC-5 cells uninfected (FIG. 3A) or infected with HCMV (FIG. 3B) were either untreated, or treated with either phosphonacetic acid or gancyclovir at a concentration sufficient to inhibit viral replication (Huang, 1975; Crumpacker, 1996). Two days later these cells were challenged with either anti-Fas antibody+CHX or TNF-α+CHX (FIGS. 3A and 3B). Although nearly all non-infected MRC-5 cells underwent apoptosis, irrespective of the presence or absence of phosphonacetic acid or gancyclovir, a major fraction of cells exposed to HCMV survived the challenge with the apoptotic stimuli in the absence of the viral DNA polymerase inhibitors. Further, a somewhat smaller but still large fraction of cells survived in the presence of the inhibitors. Thus, the insensitivity of HCMV-infected cells to apoptosis was not abolished by these drugs.
# HeLa cells = experiment: Transient transfection apoptosis assay in HeLa cells (anti-Fas antibody+CHX or TNF-α+CHX); conditions: for protection of HeLa cells at very low plasmid concentration: 0.1% to 1% of the total DNA transfected, mixed with control vector, anti-Fas antibody+CHX; for β-gal levels after anti-Fas antibody+CHX treatment: plasmids diluted several hundred fold, β-gal marker plasmid
# Method: as §1, with “microscope. A similar degree of cell death occurred in fibroblasts when examined 5 to 28 h after the start of exposure, or a similar degree of cell death occurred in HeLa cells when examined 9-28 h after the start of exposure. Further, a similar degree of cell death for a given reagent was produced when any concentration within the range indicated above was used.” for “microscope.”
# The degree of cell death in cells transfected with an indicator plasmid expressing E. coli β-galactosidase was determined by either a β-galactosidase ELISA (Boehringer Mannheim), in accordance with the manufacturer's recommendations, or by visually scoring, under a microscope, positive blue cells, expressing β-galactosidase, after staining them with X-gal.
# HeLa cells were transiently co-transfected with an expression plasmid vector, pME18S, carrying a polynucleotide sequence encoding IE1 or IE2 (FIG. 5, “IE1” and “IE2,” respectively), and a vector carrying the β-galactosidase gene (pCMVβ, Clontech). As a positive control, HeLa cells were transiently co-transfected with pCMVβ and a vector carrying a polynucleotide sequence encoding an anti-apoptotic polypeptide, such as the adenovirus E1B 19K or baculovirus p35.
# Expression of IE1 (approx. 72 kDa) and IE2 (approx. 86 kDa) in the transfected HeLa cells was confirmed by Western blot analysis, by immunofluorescence visually examined under a fluorescence microscope, and by transactivation activity which led to an elevation of the vector-CMV-promoter-driven β-galactosidase expression which was increased 2- to 5-fold, as measured by a β-galactosidase ELISA (data not shown). Apoptosis was induced by incubating the transfected cells for 24 h with either TNF-α+CHX, or anti-Fas antibody+CHX. The surviving cells were stained with X-gal, a chromogenic substrate of β-galactosidase, and then the blue-stained cells were scored (FIG. 5).
# To identify HCMV genes that can suppress apoptosis induced by Fas-ligation, the present inventors established a transient transfection assay in HeLa cells. The HeLa cells can be transfected at much higher efficiency than MRC-5 cells and are similar in their sensitivity towards anti-Fas antibody and TNF-α treatment. Enhanced survival of HeLa cells following anti-Fas antibody+CHX treatment was detected by elevated β-galactosidase (β-gal) levels produced by a transfected β-gal marker plasmid.
# The deletion mutants were transiently expressed in HeLa cells, cultured in DMEM supplemented with 10% fetal bovine serum, and assayed for their ability to block Fas- or TNF-R1-mediated apoptosis. Transfections and apoptosis assays were performed as previously described (Goldmacher et al., 1999). Briefly, cells were transiently transfected with the expression vectors (purified with a Qiagen plasmid purification kit) using SuperFect transfection reagent (Qiagen) in accordance with the manufacturer's protocol. After 24 hours, cells were exposed to anti-Fas 7C11 antibody (Coulter, 0.5 μg/ml)+cyclohexamide (Sigma, 10 μg/ml) for 24 hours.
# A genomic DNA library was cloned into pZeoSV2(+) plasmid (Invitrogen). Ten cosmids, pCM1007, pCM1015, pCM1017, pCM1029, pCM1035, pCM1039, pCM1040, pCM1052, pCM1058, and pCM1072, covering the AD169 genome (Fleckenstein et al., 1982, which is incorporated herein by reference), and pON2601 Toledo cosmid (Cha et al., 1996, which is incorporated herein by reference) containing unique HCMV sequences, were mixed in equal amounts and partially digested with Sau3AI (New England Biolabs, Beverly, Mass.). […]
# [2] = tested on: Fas-mediated apoptotic signaling in HeLa cells; experiment: Western blot of Fas-mediated apoptotic signaling events in HeLa clones
# Method: Cells were trypsinized, washed in Tris buffered saline, resuspended in a lysis buffer (150 mM NaCl, 5 mM EDTA, 50 mM Tris.HCl pH 8.0, 1% Triton X-100), freshly supplemented with phenylmethylsulfonyl fluoride (0.1 mM), leupeptin ([…]) and pepstatin (1 μg/mL), incubated on ice for 30 minutes, and centrifuged at 16,000 g for 15 minutes, at 4° C. Cytochrome c and procaspase 9 were detected in S-1 00 fractions of cells (Li et al., 1997, which is incorporated herein by reference).
# The intracellular polypeptides were detected by Western blot analysis. Samples containing protein were electrophoretically resolved under reduced conditions, on Laemmli SDS-PAGE (Novex), after equal amounts of protein were loaded per well of the gel, detected using a standard Western blot protocol and a luminol-based ECL Western Blotting system (Amersham). The following antibodies were used in the Western blot analysis: anti-human Bid C-20 (Santa Cruz Biotechnology), 5F7 anti-human caspase 8 (Upstate Biotechnology), C210 anti-PARP (Biomol), 7H8.2C12 anti-cytochrome c (Pharmigen), B40 anti-human caspase 9 (Pharmigen), FITC-anti-mouse IgG (Sigma), HRP-anti-mouse IgG-F, (Pierce), HRP-anti-mouse IgG2b (Boehringer Mannheim), HRP-anti-rabbit IgG, and HRP-anti-mouse Ig (Amersham).
# The impact of pUL37S on biochemical events involved in Fas-mediated apoptosis was examined by comparing control HeLa/pcDNA3 cells, which are sensitive to anti-Fas antibody plus CHX, to HeLa clones expressing either pUL37S or cellular Bcl-xL, both of which are resistant to Fas-mediated apoptosis. Ligation of Fas triggers the recruitment and activation of caspase 8 through the adapter molecule FADD (Ashkenazi et al., 1998). This process was not impaired by pUL37S since pro-caspase 8 was processed in pUL37S-expressing cells similar to its processing in either Bcl-xL-expressing cells, or control cells within 4 h of the exposure to anti-Fas antibody plus CHX, but not CHX alone (FIG. 16A). Fas-signaling is connected to mitochondrial events in apoptosis through Bid, a pro-apoptotic BH3 polypeptide that is proteolyzed by caspase 8 and subsequently translocates to mitochondria where it triggers cytochrome c release (Li et al., 1998; Lu et al., 1998).
molecule,measurement,setting,value
COC(=O)C[C@H](NC(=O)[C@H](C)NC(=O)[C@@H](NC(=O)OCc1ccccc1)C(C)C)C(=O)CF [Z-VADfmk] (Cbz-Val-Ala-Asp(OMe)-CH2F),effect on Fas- and TNF-R1-mediated MRC-5 cell death,MRC-5 cells; caspase inhibitor added with anti-Fas antibody or TNF-α +CHX,prevented
Nc1nc(O)c2ncn(COC(CO)CO)c2n1 [gancyclovir],effect on insensitivity of HCMV-infected cells to apoptosis,[1],not abolished
Bcl-2: human anti-apoptotic gene product,protection of HeLa cells at very low plasmid concentration,HeLa cells,detectable protection
"C[C@@H]1C[C@@H]([C@H](O)CC2CC(=O)NC(=O)C2)C(=O)[C@@H](C)C1 [CHX, Cycloheximide]",cell death of MRC-5 cells,MRC-5 cells,did not kill cells
Bcl-xL: human cellular anti-apoptotic polypeptide,protection of HeLa cells at very low plasmid concentration,HeLa cells,detectable protection
same,β-gal levels after anti-Fas antibody+CHX treatment,HeLa cells,enhanced β-gal levels
same,cleavage of PARP,[2]; 4 h anti-Fas antibody plus CHX,inhibited
same,cytochrome c release,[2]; 4 h anti-Fas antibody plus CHX,not observed
same,processing of procaspase 9,[2]; 4 h anti-Fas antibody plus CHX,inhibited
same,processing of pro-caspase 8,[2]; within 4 h of anti-Fas antibody plus CHX,processed
O=C(O)CP(=O)(O)O [phosphonacetic acid],effect on insensitivity of HCMV-infected cells to apoptosis,[1],not abolished
TNF-α,cell death of MRC-5 cells,MRC-5 cells,died
"p35: baculovirus anti-apoptotic polypeptide, positive control (protein, UniProt P08160 1-299, looked up) Early 35 kDa protein: MCVIFPVEIDVSQTIIRDCQVDKQTRELVYINKIMNTQLTKPVLMMFNISGPIRSVTRKNNNLRDRIKSKVDEQFDQLERDYSDQMDGFHDSIKYFKDEHYSVSCQNGSVLKSKFAKILKSHDYTDKKSIEAYEKYCLPKLVDERNDYYVAVCVLKPGFENGSNQVLSFEYNPIGNKVIVPFAHEINDTGLYEYDVVAYVDSVQFDGEQFEEFVQSLILPSSFKNSEKVLYYNEASKNKSMIYKALEFTTESSWGKSEKYNWKIFCNGFIYDKKSKVLYVKLHNVTSALNKNVILNTIK",protection of HeLa cells at very low plasmid concentration,HeLa cells,detectable protection
same,survival of transfected cells after apoptosis induction,"HeLa cells; HeLa cells, 24 h with either TNF-α+CHX or anti-Fas antibody+CHX, X-gal stained cells scored",survived
same,β-gal levels after anti-Fas antibody+CHX treatment,HeLa cells,enhanced β-gal levels
